Data taken from US20050060764A1, “Mouse model for bone metabolism” (priority 2003, published 2005).
Strand notation (5' to 3'): a small letter for the sugar, then the base; units joined by * are phosphorothioate-linked, units joined directly phosphodiester-linked; [ ] holds rarer units or linkages, { } end groups; capitals alone tell only the bases. e = 2'-O-(2-methoxyethyl) (MOE); [5mC] = 5-methylcytosine; d = 2'-deoxy (DNA)

tested on: rat RANKL mRNA; assay: Antisense inhibition of rat RANKL mRNA levels in UMR-106 cells, quantitative real-time PCR (Table 3); format: cell-based; design: concentration or dose not given beside the values; details: averages from three experiments
Method: Cells were seeded onto 24-well plates (Falcon-353047) at a density of […] for use in antisense oligonucleotide transfection.
Cells are treated and data are obtained in triplicate. […] Cells were harvested 16-24 hours after oligonucleotide treatment.
PCR reagents were obtained from Invitrogen Corporation, (Carlsbad, Calif.).
Probes and primers to rat RANKL were designed to hybridize to a rat RANKL sequence, using published sequence information (GenBank accession number NM_057149.1, incorporated herein as SEQ ID NO:18). For rat RANKL the PCR primers were: • forward primer: […] (SEQ ID NO:19) • reverse primer: […] (SEQ ID NO: 20) and the • PCR probe was: FAM-[…]-TAMRA (SEQ ID NO: 21) where FAM is the fluorescent reporter dye and TAMRA is the quencher dye. For rat GAPDH the PCR primers were: • forward primer: […](SEQ ID NO:22) • reverse primer: […](SEQ ID NO:23) and the • PCR probe was: 5′ JOE-[…]-TAMRA 3′ (SEQ ID NO: 24) where JOE is the fluorescent reporter dye and TAMRA is the quencher dye.
In accordance with the present invention, a second series of antisense compounds was designed to target different regions of the rat RANKL RNA, using published sequences (GenBank accession number NM_057149.1, incorporated herein as SEQ ID NO: 18, and GenBank accession number AF425669.1, incorporated herein as SEQ ID NO: 200). […] All cytidine residues are 5-methylcytidines. […] If present, “N.D.” indicates “no data”.

Substance | % INHIB (inhibition of rat RANKL mRNA levels)
286627 (antisense eG*e[5mC]*eA*eA*eA*dT*dG*dT*dT*dG*dG*d[5mC]*dG*dT*dA*e[5mC]*eA*eG*eG*eT) [compound 286627] | 53%
286628 (antisense eA*eG*eA*eT*eA*dG*dT*d[5mC]*d[5mC]*dG*d[5mC]*dA*dG*dG*dT*eA*e[5mC]*eG*e[5mC]*eT) [compound 286628] | 24%
286629 (antisense eA*e[5mC]*e[5mC]*eA*eT*d[5mC]*dA*dG*d[5mC]*dT*dG*dA*dA*dG*dA*eT*eA*eG*eT*e[5mC]) [compound 286629] | 63%
286630 (antisense eT*eT*eT*eT*eA*dA*d[5mC]*dG*dA*d[5mC]*dA*dT*dA*dT*dA*e[5mC]*e[5mC]*eA*eT*e[5mC]) [compound 286630] | 44%
286631 (antisense eA*eT*eG*e[5mC]*eT*dG*dG*dT*dT*dT*dT*dA*dA*d[5mC]*dG*eA*e[5mC]*eA*eT*eA) [compound 286631] | 35%
286632 (antisense e[5mC]*eT*eT*eG*eG*dG*dA*dT*dT*dT*dT*dG*dA*dT*dG*e[5mC]*eT*eG*eG*eT) [compound 286632] | 51%
286633 (antisense e[5mC]*e[5mC]*eA*eG*eT*dT*d[5mC]*dT*dT*dA*dG*dT*dG*d[5mC]*dT*e[5mC]*e[5mC]*e[5mC]*e[5mC]*e[5mC]) [compound 286633] | 4%
286634 (antisense eA*eA*eT*eT*e[5mC]*dA*dG*dA*dA*dT*dT*d[5mC]*d[5mC]*d[5mC]*dT*eG*eA*e[5mC]*e[5mC]*eA) [compound 286634] | 21%
286635 (antisense eT*eA*eA*eA*eA*dG*dT*dG*dG*dA*dA*dT*dT*d[5mC]*dA*eG*eA*eA*eT*eT) [compound 286635] | 11%
286636 (antisense eT*eG*eG*eA*eA*dT*dA*dA*dA*dA*dG*dT*dG*dG*dA*eA*eT*eT*e[5mC]*eA) [compound 286636] | 21%
286637 (antisense e[5mC]*eG*e[5mC]*eA*eT*d[5mC]*dT*dT*dG*dA*dT*d[5mC]*d[5mC]*dG*dG*eA*eT*e[5mC]*e[5mC]*eA) [compound 286637] | 27%
286638 (antisense eA*eG*eT*eA*e[5mC]*dG*dT*d[5mC]*dG*d[5mC]*dA*dT*d[5mC]*dT*dT*eG*eA*eT*e[5mC]*e[5mC]) [compound 286638] | 26%
286639 (antisense e[5mC]*e[5mC]*e[5mC]*eA*eA*dA*dG*dT*dA*d[5mC]*dG*dT*d[5mC]*dG*d[5mC]*eA*eT*e[5mC]*eT*eT) [compound 286639] | 48%
286640 (antisense eA*eA*eA*eG*e[5mC]*d[5mC]*d[5mC]*d[5mC]*dA*dA*dA*dG*dT*dA*d[5mC]*eG*eT*e[5mC]*eG*e[5mC]) [compound 286640] | 56%
286641 (antisense e[5mC]*eT*eT*eT*eG*dA*dA*dA*dG*d[5mC]*d[5mC]*d[5mC]*d[5mC]*dA*dA*eA*eG*eT*eA*e[5mC]) [compound 286641] | 49%
286642 (antisense eT*e[5mC]*eA*eG*eT*d[5mC]*dT*dA*dT*dG*dT*d[5mC]*dT*dT*dG*eA*eA*e[5mC]*eT*eT) [compound 286642] | 41%
286643 (antisense eG*e[5mC]*eA*eT*eA*dT*d[5mC]*d[5mC]*dA*dT*dG*d[5mC]*dT*dA*dA*eG*eG*e[5mC]*eT*e[5mC]) [compound 286643] | 69%
286644 (antisense eG*eT*e[5mC]*eT*eT*dA*d[5mC]*dA*d[5mC]*dA*dT*dG*dT*dA*dT*e[5mC]*eT*eA*e[5mC]*eA) [compound 286644] | 57%
286645 (antisense e[5mC]*eT*eT*eA*eG*dT*dA*dG*dT*d[5mC]*dT*dT*dA*d[5mC]*dA*e[5mC]*eA*eT*eG*eT) [compound 286645] | 51%
286646 (antisense eT*eT*eT*eT*eG*dT*dA*d[5mC]*dA*dA*d[5mC]*dG*dT*dG*dG*eG*e[5mC]*e[5mC]*eA*e[5mC]) [compound 286646] | 53%

Substance | % INHIB (inhibition of rat RANKL mRNA levels)
286647 (antisense eG*eA*e[5mC]*e[5mC]*eT*dG*dT*dA*d[5mC]*dA*dG*dG*dG*dT*d[5mC]*eG*eA*eG*eA*eG) [compound 286647] | 53%
286648 (antisense e[5mC]*e[5mC]*eA*eT*eT*dG*dT*dG*dT*dG*dA*dT*d[5mC]*dA*d[5mC]*e[5mC]*eA*eT*eG*eA) [compound 286648] | 72%
286649 (antisense eT*eA*eG*eA*e[5mC]*d[5mC]*d[5mC]*dA*dG*dA*dG*dA*d[5mC]*dT*dA*eT*eG*eT*eA*eT) [compound 286649] | 25%
286650 (antisense eG*eT*eG*eG*e[5mC]*dA*d[5mC]*dA*dG*dG*d[5mC]*d[5mC]*d[5mC]*dA*dG*eG*eA*eG*eT*eT) [compound 286650] | 53%
286651 (eA*eG*eG*eT*eT*d[5mC]*dT*d[5mC]*dA*dG*dT*dG*dG*d[5mC]*dA*e[5mC]*eA*eG*eG*e[5mC]; antisense) [compound 286651] | 80%
286652 (e[5mC]*eT*e[5mC]*eT*eG*d[5mC]*dA*dA*dT*dG*dT*dA*dA*d[5mC]*dG*eG*eT*eA*e[5mC]*e[5mC]; antisense) [compound 286652] | 53%
286653 (eA*eA*eA*e[5mC]*e[5mC]*dA*dT*d[5mC]*dA*dT*dT*dT*d[5mC]*dT*d[5mC]*eT*eG*e[5mC]*eA*eA; antisense) [compound 286653] | 58%
286654 (eA*e[5mC]*eT*eT*eA*dT*dT*dT*dG*d[5mC]*dA*dG*dG*dT*dT*e[5mC]*e[5mC]*eA*eG*e[5mC]; antisense) [compound 286654] | 55%
286655 (eG*eA*eA*eA*eA*d[5mC]*d[5mC]*dT*dT*dA*d[5mC]*dA*d[5mC]*d[5mC]*dT*eG*eA*eA*eA*eT; antisense) [compound 286655] | 0%
286656 (eT*eT*eT*eT*eG*d[5mC]*dA*d[5mC]*dA*dG*dA*dA*dA*dA*d[5mC]*e[5mC]*eT*eT*eA*e[5mC]; antisense) [compound 286656] | 12%
286657 (e[5mC]*e[5mC]*eA*eG*eT*dT*dA*dA*dA*dT*dA*d[5mC]*dA*dT*d[5mC]*eT*eT*eG*eA*e[5mC]; antisense) [compound 286657] | 10%
aaaccatcatttctctgcaa (eA*eA*eA*e[5mC]*e[5mC]*dA*dT*d[5mC]*dA*dT*dT*dT*d[5mC]*dT*d[5mC]*eT*eG*e[5mC]*eA*eA; antisense) [ISIS 286653, 2′-MOE gapmer targeted to rat RANKL] | at least 40%
aaagccccaaagtacgtcgc (eA*eA*eA*eG*e[5mC]*d[5mC]*d[5mC]*d[5mC]*dA*dA*dA*dG*dT*dA*d[5mC]*eG*eT*e[5mC]*eG*e[5mC]; antisense) [ISIS 286640, 2′-MOE gapmer targeted to rat RANKL] | at least 40%
aacctgtattttcacggagt (eA*eA*e[5mC]*e[5mC]*eT*dG*dT*dA*dT*dT*dT*dT*d[5mC]*dA*d[5mC]*eG*eG*eA*eG*eT; antisense) [ISIS 286602, 2′-MOE gapmer targeted to rat RANKL] | at least 40%
acagagcgatgctgcagacc (antisense eA*e[5mC]*eA*eG*eA*dG*d[5mC]*dG*dA*dT*dG*d[5mC]*dT*dG*d[5mC]*eA*eG*eA*e[5mC]*e[5mC]) [ISIS 286589, 2′-MOE gapmer targeted to rat RANKL] | at least 40%
accatcagctgaagatagtc (eA*e[5mC]*e[5mC]*eA*eT*d[5mC]*dA*dG*d[5mC]*dT*dG*dA*dA*dG*dA*eT*eA*eG*eT*e[5mC]; antisense) [ISIS 286629, 2′-MOE gapmer targeted to rat RANKL] | at least 40%
acccttagttttccgttgct (eA*e[5mC]*e[5mC]*e[5mC]*eT*dT*dA*dG*dT*dT*dT*dT*d[5mC]*d[5mC]*dG*eT*eT*eG*e[5mC]*eT; antisense) [ISIS 286618, 2′-MOE gapmer targeted to rat RANKL] | at least 40%
acttatttgcaggttccagc (eA*e[5mC]*eT*eT*eA*dT*dT*dT*dG*d[5mC]*dA*dG*dG*dT*dT*e[5mC]*e[5mC]*eA*eG*e[5mC]; antisense) [ISIS 286654, 2′-MOE gapmer targeted to rat RANKL] | at least 40%
agaggacagactgactttat (eA*eG*eA*eG*eG*dA*d[5mC]*dA*dG*dA*d[5mC]*dT*dG*dA*d[5mC]*eT*eT*eT*eA*eT; antisense) [ISIS 286611, 2′-MOE gapmer targeted to rat RANKL] | at least 40%
